Numbered stars: 1 amine (or outer) side, 2 acyl side, 3 side chain; on linkers, the order of the positions; unused ones are H or OH. Side chains are listed from the residue outwards. Peptide text beside a SMILES is read from it. * marks the point of attachment. C18 diacid = O=C(O)CCCCCCCCCCCCCCCCC(=O)*; γGlu = O=C(O)[C@H](CCC(=O)[*:2])N[*:1]; AEEA = NCCOCCOCC(=O)O
Target: glucagon receptor (Homo sapiens, UniProt P47871)
Experiment: cell-based
Method: The cells (14000 per well) were incubated (37° C., 5% CO2) overnight in 384-well plates. Next day the cells were loaded with a calcium responsive dye that only distributed into the cytoplasm. Probenecid, an inhibitor of the organic anion transporter, was added to prevent the dye from leaving the cell. A PDE inhibitor was added to prevent formatted cAMP from being degraded. […] End point data were collected after 6 minutes. An increase in intracellular cAMP was proportional to an increased in calcium concentrations in the cytoplasm. […] EC50-values were calculated in Prism5.

Chain of glucagon receptor (P47871 26-477): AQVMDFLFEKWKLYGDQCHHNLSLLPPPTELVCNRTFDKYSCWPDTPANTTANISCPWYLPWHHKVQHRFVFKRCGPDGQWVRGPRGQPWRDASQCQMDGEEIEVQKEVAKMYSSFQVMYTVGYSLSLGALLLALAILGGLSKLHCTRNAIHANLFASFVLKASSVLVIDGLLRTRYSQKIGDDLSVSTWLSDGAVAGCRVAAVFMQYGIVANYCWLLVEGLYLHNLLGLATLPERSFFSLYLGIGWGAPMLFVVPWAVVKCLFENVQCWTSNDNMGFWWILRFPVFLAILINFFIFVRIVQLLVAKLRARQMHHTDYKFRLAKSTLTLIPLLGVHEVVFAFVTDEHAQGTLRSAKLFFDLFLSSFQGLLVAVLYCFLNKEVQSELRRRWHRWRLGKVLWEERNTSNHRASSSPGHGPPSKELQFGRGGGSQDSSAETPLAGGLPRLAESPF

| Structure (SMILES) | EC50 [nM] |
| --- | --- |
| CC(C)C[C@H](NC(=O)[C@H](CC(C)C)NC(=O)[C@H](Cc1c[nH]c2ccccc12)NC(=O)[C@H](CCC(N)=O)NC(=O)[C@@H](NC(=O)[C@H](Cc1ccccc1)NC(=O)[C@H](CCC(=O)O)NC(=O)[C@H](CCC(N)=O)NC(=O)[C@H](C)NC(=O)[C@H](CCCNC(=N)N)NC(=O)[C@H](CCCCN)NC(=O)[C@H](CO)NC(=O)[C@H](CC(=O)O)NC(=O)[C@H](CC(C)C)NC(=O)[C@H](Cc1ccc(O)cc1)NC(=O)[C@H](CCCCN)NC(=O)[C@H](CO)NC(=O)[C@H](Cc1ccc(O)cc1)NC(=O)[C@H](CC(=O)O)NC(=O)[C@H](CO)NC(=O)[C@@H](NC(=O)[C@H](Cc1ccccc1)NC(=O)[C@@H](NC(=O)CNC(=O)[C@H](CCC(N)=O)NC(=O)[C@H](CO)NC(=O)[C@@H](N)Cc1c[nH]cn1)[C@@H](C)O)[C@@H](C)O)C(C)C)C(=O)N[C@@H](CC(N)=O)C(=O)N[C@@H](CCCCNC(=O)COCCOCCNC(=O)COCCOCCNC(=O)CC[C@H](NC(=O)CCCCCCCCCCCCCCCCC(=O)O)C(=O)O)C(N)=O [Example 46, N^ε29 ([2-[2-[2-[[2-[2-[2-[[(4S)-5-hydroxy-4-[(18-hydroxy-18-oxooctadecanoyl)amino]-5-oxopentanoyl]amino]ethoxy]ethoxy]acetyl]amino]ethoxy]ethoxy]acetyl]) [Lys^17, Glu^21, Leu^27, Lys^29] Glucagon peptide amide] (H-HSQGTFTSDYSKYLDSKRAQEFVQWLLNK([AEEA-AEEA-γGlu-C18 diacid])-NH2; N-terminus assumed) | 0.003 |
| CC(C)C[C@H](NC(=O)[C@H](CC(C)C)NC(=O)[C@H](Cc1c[nH]c2ccccc12)NC(=O)[C@H](CCC(N)=O)NC(=O)[C@@H](NC(=O)[C@H](Cc1ccccc1)NC(=O)[C@H](CC(=O)O)NC(=O)[C@H](CCC(N)=O)NC(=O)[C@H](C)NC(=O)[C@H](CCCNC(=N)N)NC(=O)[C@H](CCCNC(=N)N)NC(=O)[C@H](CO)NC(=O)[C@H](CC(=O)O)NC(=O)[C@H](CC(C)C)NC(=O)[C@H](Cc1ccc(O)cc1)NC(=O)[C@H](CCCCN)NC(=O)[C@H](CO)NC(=O)[C@H](Cc1ccc(O)cc1)NC(=O)[C@H](CC(=O)O)NC(=O)[C@H](CO)NC(=O)[C@@H](NC(=O)[C@H](Cc1ccccc1)NC(=O)[C@@H](NC(=O)CNC(=O)[C@H](CCC(N)=O)NC(=O)[C@H](CO)NC(=O)[C@@H](N)Cc1c[nH]cn1)[C@@H](C)O)[C@@H](C)O)C(C)C)C(=O)N[C@@H](CC(N)=O)C(=O)N[C@@H](CCCCNC(=O)COCCOCCNC(=O)COCCOCCNC(=O)CC[C@H](NC(=O)CCCCCCCCCCCCCCCCC(=O)O)C(=O)O)C(=O)O [Example 10] | 0.046 |
| CC(C)C[C@H](NC(=O)[C@H](Cc1ccc(O)cc1)NC(=O)[C@H](CCCCN)NC(=O)[C@H](CO)NC(=O)[C@H](Cc1ccc(O)cc1)NC(=O)[C@H](CC(=O)O)NC(=O)[C@H](CO)NC(=O)[C@@H](NC(=O)[C@H](Cc1ccccc1)NC(=O)[C@@H](NC(=O)CNC(=O)[C@H](CCC(N)=O)NC(=O)[C@H](CO)NC(=O)[C@@H](N)Cc1c[nH]cn1)[C@@H](C)O)[C@@H](C)O)C(=O)N[C@@H](CC(=O)O)C(=O)N[C@@H](CO)C(=O)N[C@@H](CCCCNC(=O)COCCOCCNC(=O)COCCOCCNC(=O)CC[C@H](NC(=O)CCCCCCCCCCCCCCCCC(=O)O)C(=O)O)C(=O)N[C@@H](CCCNC(=N)N)C(=O)N[C@@H](C)C(=O)N[C@@H](CCC(N)=O)C(=O)N[C@@H](CC(=O)O)C(=O)N[C@@H](Cc1ccccc1)C(=O)N[C@H](C(=O)N[C@@H](CCC(N)=O)C(=O)N[C@@H](Cc1c[nH]c2ccccc12)C(=O)N[C@@H](CC(C)C)C(=O)N[C@@H](CC(C)C)C(=O)N[C@@H](CC(N)=O)C(=O)N[C@H](C(=O)O)[C@@H](C)O)C(C)C [Example 19] | 0.094 |
| CSCC[C@H](NC(=O)[C@H](CC(C)C)NC(=O)[C@H](Cc1c[nH]c2ccccc12)NC(=O)[C@H](CCC(N)=O)NC(=O)[C@@H](NC(=O)[C@H](Cc1ccccc1)NC(=O)[C@H](CC(=O)O)NC(=O)[C@H](CCCNC(=N)N)NC(=O)[C@H](C)NC(=O)[C@H](CCCNC(=N)N)NC(=O)[C@H](CCC(N)=O)NC(=O)[C@H](CCC(=O)O)NC(=O)[C@H](CC(=O)O)NC(=O)[C@H](CC(C)C)NC(=O)[C@H](Cc1ccc(O)cc1)NC(=O)[C@H](CCCCN)NC(=O)[C@H](CO)NC(=O)[C@H](Cc1ccc(O)cc1)NC(=O)[C@H](CC(=O)O)NC(=O)[C@H](CO)NC(=O)[C@@H](NC(=O)[C@H](Cc1ccccc1)NC(=O)[C@@H](NC(=O)CNC(=O)[C@H](CCC(N)=O)NC(=O)[C@H](CO)NC(=O)[C@@H](N)Cc1c[nH]cn1)[C@@H](C)O)[C@@H](C)O)C(C)C)C(=O)N[C@@H](CC(N)=O)C(=O)N[C@H](C(=O)N[C@@H](CCCCNC(=O)COCCOCCNC(=O)COCCOCCNC(=O)CC[C@H](NC(=O)CCCCCCCCCCCCCCCCC(=O)O)C(=O)O)C(N)=O)[C@@H](C)O [Example 26, N^α ([Glu^16,Gln^17,Arg^20] Glucagonyl) N^ε-([2-[2-[2-[[2-[2-[2-[[(4S)-5-hydroxy-4-[(18-hydroxy-18-oxooctadecanoyl)amino]-5-oxopentanoyl]amino]ethoxy]ethoxy]acetyl]amino]ethoxy]ethoxy]acetyl]) Lysinyl amide] (H-HSQGTFTSDYSKYLDEQRARDFVQWLMNTK([AEEA-AEEA-γGlu-C18 diacid])-NH2; N-terminus assumed) | 0.192 |

Next, values leading:

| EC50 [nM] | Structure (SMILES) |
| --- | --- |
| 0.015 | CC(C)C[C@H](NC(=O)[C@H](Cc1ccc(O)cc1)NC(=O)[C@H](CCCCN)NC(=O)[C@H](CO)NC(=O)[C@H](Cc1ccc(O)cc1)NC(=O)[C@H](CC(=O)O)NC(=O)[C@H](CO)NC(=O)[C@@H](NC(=O)[C@H](Cc1ccccc1)NC(=O)[C@@H](NC(=O)CNC(=O)[C@H](CCC(N)=O)NC(=O)[C@H](CO)NC(=O)[C@@H](N)Cc1c[nH]cn1)[C@@H](C)O)[C@@H](C)O)C(=O)N[C@@H](CC(=O)O)C(=O)N[C@@H](CCC(=O)O)C(=O)N[C@@H](CCCCN)C(=O)N[C@@H](CCCNC(=N)N)C(=O)N[C@@H](C)C(=O)N[C@@H](CCC(N)=O)C(=O)N[C@@H](CCC(=O)O)C(=O)N[C@@H](Cc1ccccc1)C(=O)N[C@H](C(=O)N[C@@H](CCCCNC(=O)COCCOCCNC(=O)COCCOCCNC(=O)CC[C@H](NC(=O)CCCCCCCCCCCCCCCCC(=O)O)C(=O)O)C(=O)N[C@@H](Cc1c[nH]c2ccccc12)C(=O)N[C@@H](CC(C)C)C(=O)N[C@@H](CC(C)C)C(=O)N[C@@H](CC(N)=O)C(=O)N[C@H](C(N)=O)[C@@H](C)O)C(C)C [Example 38, N^ε24-([2-[2-[2-[[2-[2-[2-[[(4S)-5-hydroxy-4-[(18-hydroxy-18-oxooctadecanoyl)amino]-5-oxopentanoyl]amino]ethoxy]ethoxy]acetyl]amino]ethoxy]ethoxy]acetyl])[Glu^16, Lys^17, Glu^21, Lys^24,Leu^27] Glucagon peptide amide] (H-HSQGTFTSDYSKYLDEKRAQEFVK([AEEA-AEEA-γGlu-C18 diacid])WLLNT-NH2; N-terminus assumed) |
| 0.003 | CC(C)C[C@H](NC(=O)[C@H](Cc1ccc(O)cc1)NC(=O)[C@H](CCCCN)NC(=O)[C@H](CO)NC(=O)[C@H](Cc1ccc(O)cc1)NC(=O)[C@H](CC(=O)O)NC(=O)[C@H](CO)NC(=O)[C@@H](NC(=O)[C@H](Cc1ccccc1)NC(=O)[C@@H](NC(=O)CNC(=O)[C@H](CCC(N)=O)NC(=O)[C@H](CO)NC(=O)[C@@H](N)Cc1c[nH]cn1)[C@@H](C)O)[C@@H](C)O)C(=O)N[C@@H](CC(=O)O)C(=O)N[C@@H](CO)C(=O)N[C@@H](CCCCN)C(=O)N[C@@H](CCCNC(=N)N)C(=O)N[C@@H](C)C(=O)N[C@@H](CCC(N)=O)C(=O)N[C@@H](CCC(=O)O)C(=O)N[C@@H](Cc1ccccc1)C(=O)N[C@H](C(=O)N[C@@H](CCCCNC(=O)COCCOCCNC(=O)COCCOCCNC(=O)CC[C@H](NC(=O)CCCCCCCCCCCCCCCCC(=O)O)C(=O)O)C(=O)N[C@@H](Cc1c[nH]c2ccccc12)C(=O)N[C@@H](CC(C)C)C(=O)N[C@@H](CC(C)C)C(=O)N[C@@H](CCC(=O)O)C(=O)N[C@H](C(N)=O)[C@@H](C)O)C(C)C [Example 41, N^ε24-([2-[2-[2-[[2-[2-[2-[[(4S)-5-hydroxy-4-[(18-hydroxy-18-oxooctadecanoyl)amino]-5-oxopentanoyl]amino]ethoxy]ethoxy]acetyl]amino]ethoxy]ethoxy]acetyl])[Lys^17, Glu^21,Lys^24,Leu^27,Glu^28,]Glucagon peptide amide] (H-HSQGTFTSDYSKYLDSKRAQEFVK([AEEA-AEEA-γGlu-C18 diacid])WLLET-NH2; N-terminus assumed) |
| 0.942 | CC(C)C[C@H](NC(=O)[C@H](Cc1ccc(O)cc1)NC(=O)[C@H](CCCCN)NC(=O)[C@H](CO)NC(=O)[C@H](Cc1ccc(O)cc1)NC(=O)[C@H](CC(=O)O)NC(=O)[C@H](CO)NC(=O)[C@@H](NC(=O)[C@H](Cc1ccccc1)NC(=O)[C@@H](NC(=O)CNC(=O)[C@H](CCC(N)=O)NC(=O)[C@H](CO)NC(=O)[C@@H](N)Cc1c[nH]cn1)[C@@H](C)O)[C@@H](C)O)C(=O)N[C@@H](CC(=O)O)C(=O)N[C@@H](CO)C(=O)N[C@@H](CCC(N)=O)C(=O)N[C@@H](CCCNC(=N)N)C(=O)N[C@@H](C)C(=O)N[C@@H](CCC(N)=O)C(=O)N[C@@H](CC(=O)O)C(=O)N[C@@H](Cc1ccccc1)C(=O)N[C@H](C(=O)N[C@@H](CCCCNC(=O)COCCOCCNC(=O)COCCOCCNC(=O)CC[C@H](NC(=O)CCCCCCCCCCCCCCCCC(=O)O)C(=O)O)C(=O)N[C@@H](Cc1c[nH]c2ccccc12)C(=O)N[C@@H](CC(C)C)C(=O)N[C@H](C(=O)N[C@@H](CCCCN)C(=O)N[C@H](C(=O)NCC(=O)N1CCC[C@H]1C(N)=O)[C@@H](C)O)C(C)C)C(C)C [Example 33, (N^ε24-([2-[2-[2-[[2-[2-[2-[[(4S)-5-hydroxy-4-[(18-hydroxy-18-oxooctadecanoyl)amino]-5-oxopentanoyl]amino]ethoxy]ethoxy]acetyl]amino]ethoxy]ethoxy]acetyl])[Gln^17, Lys^24, Val^27, Lys^28] Glucagonyl)-Gly-Pro amide] (H-HSQGTFTSDYSKYLDSQRAQDFVK([AEEA-AEEA-γGlu-C18 diacid])WLVKTGP-NH2; N-terminus assumed) |

— US20160271263A1 (Novo Nordisk A/S, priority 2010, published 2016)
